Where “and” joins values, the source holds several entries; their conditions need not be identical. Equal entries are not always repeated. Entries after “also recorded” stand apart in the source; their conditions may differ. Where two headings read alike, the source gives them in different places.
Assays:
[1] = molecular target: VHR (Homo sapiens (Human), UniProt P51452); assay: PTP selectivity panel (pNPP), VHR; type: biochemical; details: Table 3
Protocol: (§1) PTP activity was assayed using p-nitrophenyl phosphate (pNPP) as a substrate in DMG buffer (50 mM DMG, pH 7.0, 1 mM EDTA, 150 mM NaCl, 2 mM DTT, 0.1 mg/mL BSA) at 25° C. The assays were performed in 96-well plates. Normally, to determine the IC50 values, the reaction was initiated by the addition of enzyme (final concentration of 10 nM) to a reaction mixture (0.2 mL) containing 2 mM (Km for the substrate) pNPP with various concentrations of inhibitors. The reaction rate was measured using a Spectra Max Plus 384 Microplate Spectrophotometer (Molecular Devices). For compound 10, the final TC-PTP concentration was 0.04 nM. The reactions were incubated at room temperature for 30 min and quenched with 5N NaOH. The absorbance at 405 nm was read on the SpectraMax Plus 384 Microplate Spectrophotometer. For the reversibility test, the enzyme was incubated with the inhibitor at room temperature for 30 min before pNPP was added to initiate the reaction. The reaction was then incubated at room temperature for 30 min and quenched and read. […] To determine the mode of inhibition, the reactions were initiated by the additional enzyme (final concentration for TC-PTP was 0.4 nM and for PTP was 2 nM) to the reaction mixtures (0.2 mL) containing various concentrations of pNPP with different concentrations of the inhibitor. Data were fitted using SigmaPlot Enzyme Kinetics Module (Systat Software, Inc.)

[2] = molecular target: LMWPTP (Homo sapiens (Human), UniProt P24666); assay: PTP selectivity panel (pNPP), LMWPTP; type: biochemical; details: Table 3
Protocol: as §1

[3] = molecular target: TC-PTP (Homo sapiens (Human), UniProt P17706); assay: PTP activity assay with pNPP substrate, TC-PTP; type: biochemical
Protocol: (§2) The PTP activity was assayed using p-nitrophenyl phosphate (pNPP) as a substrate in DMG buffer at 25° C. […] The reaction rate was measure using a SPECTRAMAX microplate spectrophotometer (Molecular Devices). For the determination of Km, the initial velocity and substrate concentration data were fitted to Michaelis-Menten equation using SIGMAPLOT. […] The assays were performed in 96-well plates. […] The reaction rate was measured using a Spectra Max Plus 384 Microplate Spectrophotometer (Molecular Devices). […] The reactions were incubated at room temperature for 30 min and quenched with 5N NaOH. The absorbance at 405 nm was read on the SpectraMax Plus 384 Microplate Spectrophotometer. For the reversibility test, the enzyme was incubated with the inhibitor at room temperature for 30 min before pNPP was added to initiate the reaction. The reaction was then incubated at room temperature for 30 min and quenched and read. […] Data were fitted using SigmaPlot Enzyme Kinetics Module (Systat Software, Inc.)

[4] = molecular target: PTP1B (Homo sapiens (Human), UniProt P18031); assay: PTP activity assay with pNPP substrate, PTP1B; type: biochemical
Protocol: as §2

[5] = molecular target: PTPα (Homo sapiens (Human), UniProt P18433); assay: PTP selectivity panel (pNPP), PTPα; type: biochemical; details: Table 3
Protocol: as §1

[6] = molecular target: PTP-Meg2 (Homo sapiens (Human), UniProt P43378); assay: PTP selectivity panel (pNPP), PTP-Meg2; type: biochemical; details: Table 3
Protocol: as §1

[7] = test system: Src phosphorylation in PTP1B−/− mouse embryo fibroblast cells; assay: Effect on Src phosphorylation (pSrc416, pSrc527 immunoblot); type: cell-based; details: 2 h treatment
Protocol: To study the effect of compound 10 on Src phosphorylation, PTP1B^−/− mouse embryo fibroblast cells were grown to 80% confluence before being treated with TC-PTP inhibitor 10 for 2 h. Cells were lysed, and the lysates were cleared by centrifugation at 15 000 rpm for 10 min. 30 μg of total proteins were boiled with sample buffer, separated by SDS-PAGE, transferred electrophoretically to a PVDF membrane, and immunoblotted with anti-pSrc416, anti-pSrc527 antibodies (Invitrogen 44-660G and 44-662G) and antic-Src antibody (Cell Singling Technology #2108) followed by incubation with horseradish peroxidase conjugated secondary antibodies. The blots were developed by the enhanced chemiluminesence technique (ECL kit, Amersham Biosciences).
To further investigate the specificity of compound 10 inside the cells, the ability of compound 10 to effect Src kinase phosphorylation within the same cells was measured. Src activity is regulated by phosphorylation at two distinct tyrosine residues. Autophosphorylation of Tyr416 in the kinase domain activates Src, while phosphorylation of Tyr527 in the C-terminal tail by the C-terminal Src kinase (Csk) blocks Src activity. Previous studies have shown that PTP1B can remove the inhibitory phosphate from pSrc527, while TC-PTP is capable of dephosphorylating pSrc416 (van Vilet et al., 2005; Bjorge, et al., 2000).

[8] = molecular target: CD45 (Homo sapiens (Human), UniProt P08575); assay: PTP selectivity panel (pNPP), CD45; type: biochemical; details: Table 3
Protocol: as §1

[9] = molecular target: SHP2 (Homo sapiens (Human), UniProt Q06124); assay: PTP selectivity panel (pNPP), SHP2; type: biochemical; details: Table 3
Protocol: as §1

[10] = molecular target: VHX (Homo sapiens (Human), UniProt Q9NRW4); assay: PTP selectivity panel (pNPP), VHX; type: biochemical; details: Table 3
Protocol: as §1

[11] = molecular target: FAP1 (Homo sapiens (Human), UniProt Q12923); assay: PTP selectivity panel (pNPP), FAP1; type: biochemical; details: Table 3
Protocol: as §1

[12] = molecular target: LAR (Homo sapiens (Human), UniProt P10586); assay: PTP selectivity panel (pNPP), LAR; type: biochemical; details: Table 3
Protocol: as §1

[13] = test system: CD4 T-cells recovered from patients with type 1 diabetes; assay: pSTAT5 response to IL-2 in CD4 T-cells from type 1 diabetes patients; type: cell-based, human; details: cells with elevated TC-PTP pre-treated with compound
Protocol: An increase in expression of TC-PTP type 1 diabetic subject correlates with a decrease in STAT5 activation (Long et al., 2010). The protein expression levels of STAT5, JAK1, JAK3, and the negative regulator, TC-PTP, and CD4 T-cells of control and type 1 diabetic subjects were measured. […] No differences were found in STAT5, JAK3, or JAK1 protein expression levels between cells from the control group and the group diagnosed with type 1 diabetes. In contrast, TC-PTP expression was uniform in cells recovered from the control group but was increased overall in cells collected from patients with type 1 diabetes. […] This increased expression of TC-PTP correlated with decreased levels of pSTAT5 levels measured after exposure to IL-2.

[14] = test system: EGFR phosphorylation in PTP1B−/− mouse embryo fibroblast cells; assay: Effect of TC-PTP inhibitor on EGFR phosphorylation (anti-pTyr immunoblot); type: cell-based; details: for increase in EGFR phosphorylation compared to DMSO: EGF 2 ng/ml 10 min
Protocol: To determine the cellular efficacy of 10, its effect on tyrosine phosphorylation of EGFR, a known substrate of TC-PTP (Tiganis et al., 1998; Klingler-Hoffmann et al., 2001; Mattila et al., 2005) was assessed using an antibody against pTyr. The cells were incubated with 10 for 2 hr and subsequently treated either with or without EGF (2 ng/ml) for 10 min.
PTP1B^−/− cells were treated with TC-PTP inhibitor at indicated concentration for 2 h before EGF treatment. After EGF treatment (2 ng/ml) for 10 min, cells were lysed in 10 mM HEPES, pH 7.4, 150 mM NaCl, 10% Glycerol, 10 mM sodium phosphate, 10 mM sodium fluoride, 1 mM sodium pervanadate, 1 mM benzamidine, 1% Triton X-100, 10 μg/ml leupeptin, and 5 μg/ml aprotinin. Cell lysates were cleared by centrifugation at 15,000 rpm for 10 min. The lysate protein concentration was estimated using the BCA protein assay kit (PIERCE). To detect EGFR phosphorylation levels, 10 μg of anti-EGFR antibody (CELL SIGNALING, #2232) was added to 1 mg of cell lysate and incubated at 4° C. for 2 h. […] of protein A/G-agarose beads were then added and incubated for another 2 h. After extensive washing, the protein complex was boiled with sample buffer, separated by SDS-PAGE, transferred electrophoretically to PVDF membrane, and immunoblotted with anti-pTyr antibodies (MILLIPORE, #05-1050) followed by incubation with horseradish peroxidase-conjugated secondary antibodies. The blots were developed by the enhanced chemiluminescence technique (ECL kit, AMERSHAM BIOSCIENCES).
PTP1B^−/− mouse embryo fibroblast cells were treated with TC-PTP inhibitor at the indicated concentration for 2 h prior to EGF treatment. After EGF treatment (2 ng/mL) for 10 min, cells were lysed in 10 mM HNEPES, pH 7.4, […], 10% Glycerol, 10 mM sodium phosphate, 10 mM sodium fluoride, 1 mM sodium pervanadate, 1 mM benzamidine, 1% Triton X-100, 10 μg/mL leupeptin, and 5 μg/mL aprotinin. Cell lysates were cleared by centrifugation at 15 000 rpm for 10 min. The lysate protein concentration was estimated using the BAC protein assay kit (Pierce). To detect EGFR phosphorylation levels, 10 μg of anti-EGFR antibody (Cell Signaling, #2232) were added to 1 mg of cell lysate and incubated at 4° C. for 2 h. 20 μL of protein A/G-agarose beads were then added and incubated for another 2 hr. After extensive washing, the protein complex was boiled with sample buffer, separated by SDS-PAGE, transferred electrophoretically to a PVDF membrane, and immunoblotted with anti-pTyr antibodies (Millipore, #5-1050) followed by incubation with horseradish peroxidase conjugalated secondary antibodies. The blots were developed by enhanced chemiluminescence technique (ECL kit, Amersham Biosciences).
The cellular efficacy of compound 10 was assessed by examining its effect on tyrosine phosphorylation of EGFR, a known substrate of TC-PTP. Referring now to FIG. 2 B. PTP1B^−/− mouse embryo filbroblast cells were incubated with compound 10 at various concentrations for 2 h and subsequently treated either with or without EGF (2 ng/mL) for 10 min Inhibition of TC-PTP is expected to enhance endrogenous levels of phosphorylated EGFR. […] Remarkably, the phosphorylated form of EGFR is increased nearly 2-fold even at an inhibitor concentration of 5 nM (1.2×Ki).

[15] = molecular target: Lyp (Homo sapiens (Human), UniProt Q9Y2R2); assay: PTP selectivity panel (pNPP), Lyp; type: biochemical; details: Table 3
Protocol: as §1

[16] = molecular target: Cdc14A (Homo sapiens (Human), UniProt Q9UNH5); assay: PTP selectivity panel (pNPP), Cdc14A; type: biochemical; details: Table 3
Protocol: as §1

[17] = molecular target: He-PTP (Homo sapiens (Human), UniProt P35236); assay: PTP selectivity panel (pNPP), He-PTP; type: biochemical; details: Table 3
Protocol: as §1

TC-PTP, sequence (P17706 whole entry): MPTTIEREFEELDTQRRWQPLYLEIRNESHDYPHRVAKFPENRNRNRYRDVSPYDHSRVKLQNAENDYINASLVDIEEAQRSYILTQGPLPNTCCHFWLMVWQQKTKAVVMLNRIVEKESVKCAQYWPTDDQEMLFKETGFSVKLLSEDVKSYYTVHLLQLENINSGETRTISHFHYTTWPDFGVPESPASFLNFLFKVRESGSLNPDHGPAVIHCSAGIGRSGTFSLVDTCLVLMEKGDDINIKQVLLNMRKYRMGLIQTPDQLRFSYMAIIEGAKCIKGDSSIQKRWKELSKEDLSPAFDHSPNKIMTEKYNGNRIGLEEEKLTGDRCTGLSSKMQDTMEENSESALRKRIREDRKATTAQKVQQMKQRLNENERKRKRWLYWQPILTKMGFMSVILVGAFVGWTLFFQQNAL
PTP1B, sequence (P18031 whole entry, species assumed): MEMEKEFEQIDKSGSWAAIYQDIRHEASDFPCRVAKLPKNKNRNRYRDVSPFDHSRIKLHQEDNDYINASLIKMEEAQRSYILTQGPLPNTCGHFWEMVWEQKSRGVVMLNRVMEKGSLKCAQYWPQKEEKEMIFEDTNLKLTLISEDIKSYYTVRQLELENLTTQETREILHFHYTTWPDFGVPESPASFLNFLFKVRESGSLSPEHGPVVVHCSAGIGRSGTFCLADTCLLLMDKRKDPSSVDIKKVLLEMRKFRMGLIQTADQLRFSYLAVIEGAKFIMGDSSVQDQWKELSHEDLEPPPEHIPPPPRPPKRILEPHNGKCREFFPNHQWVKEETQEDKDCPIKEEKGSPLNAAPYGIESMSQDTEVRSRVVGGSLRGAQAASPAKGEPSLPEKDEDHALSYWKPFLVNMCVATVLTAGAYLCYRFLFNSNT
He-PTP, sequence (P35236 whole entry, species assumed): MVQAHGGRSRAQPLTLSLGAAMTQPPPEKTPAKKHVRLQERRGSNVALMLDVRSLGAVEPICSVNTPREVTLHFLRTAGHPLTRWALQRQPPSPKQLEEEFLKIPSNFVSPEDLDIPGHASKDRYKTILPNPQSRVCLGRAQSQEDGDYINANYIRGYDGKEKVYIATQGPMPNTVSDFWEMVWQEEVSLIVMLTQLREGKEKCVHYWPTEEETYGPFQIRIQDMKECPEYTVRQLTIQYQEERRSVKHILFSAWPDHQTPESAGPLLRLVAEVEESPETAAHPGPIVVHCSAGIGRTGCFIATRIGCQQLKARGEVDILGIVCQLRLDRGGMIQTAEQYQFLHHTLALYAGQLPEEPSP
SHP2, sequence (Q06124 whole entry, species assumed): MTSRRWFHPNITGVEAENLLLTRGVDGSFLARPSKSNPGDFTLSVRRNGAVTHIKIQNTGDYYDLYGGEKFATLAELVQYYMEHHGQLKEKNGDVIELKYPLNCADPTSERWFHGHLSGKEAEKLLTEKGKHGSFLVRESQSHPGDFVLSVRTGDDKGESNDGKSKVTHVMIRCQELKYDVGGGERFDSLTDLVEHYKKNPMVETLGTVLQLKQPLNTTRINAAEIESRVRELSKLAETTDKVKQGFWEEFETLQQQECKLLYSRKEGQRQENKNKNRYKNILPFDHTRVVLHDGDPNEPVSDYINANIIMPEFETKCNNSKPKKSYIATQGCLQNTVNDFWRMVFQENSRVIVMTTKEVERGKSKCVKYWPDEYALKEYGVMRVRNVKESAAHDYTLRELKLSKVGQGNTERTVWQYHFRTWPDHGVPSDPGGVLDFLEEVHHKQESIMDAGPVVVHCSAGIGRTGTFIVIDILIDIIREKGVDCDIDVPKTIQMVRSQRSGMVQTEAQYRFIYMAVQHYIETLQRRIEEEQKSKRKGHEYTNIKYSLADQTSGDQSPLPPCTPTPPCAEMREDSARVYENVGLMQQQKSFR
CD45, sequence (P08575 26-1306, species assumed): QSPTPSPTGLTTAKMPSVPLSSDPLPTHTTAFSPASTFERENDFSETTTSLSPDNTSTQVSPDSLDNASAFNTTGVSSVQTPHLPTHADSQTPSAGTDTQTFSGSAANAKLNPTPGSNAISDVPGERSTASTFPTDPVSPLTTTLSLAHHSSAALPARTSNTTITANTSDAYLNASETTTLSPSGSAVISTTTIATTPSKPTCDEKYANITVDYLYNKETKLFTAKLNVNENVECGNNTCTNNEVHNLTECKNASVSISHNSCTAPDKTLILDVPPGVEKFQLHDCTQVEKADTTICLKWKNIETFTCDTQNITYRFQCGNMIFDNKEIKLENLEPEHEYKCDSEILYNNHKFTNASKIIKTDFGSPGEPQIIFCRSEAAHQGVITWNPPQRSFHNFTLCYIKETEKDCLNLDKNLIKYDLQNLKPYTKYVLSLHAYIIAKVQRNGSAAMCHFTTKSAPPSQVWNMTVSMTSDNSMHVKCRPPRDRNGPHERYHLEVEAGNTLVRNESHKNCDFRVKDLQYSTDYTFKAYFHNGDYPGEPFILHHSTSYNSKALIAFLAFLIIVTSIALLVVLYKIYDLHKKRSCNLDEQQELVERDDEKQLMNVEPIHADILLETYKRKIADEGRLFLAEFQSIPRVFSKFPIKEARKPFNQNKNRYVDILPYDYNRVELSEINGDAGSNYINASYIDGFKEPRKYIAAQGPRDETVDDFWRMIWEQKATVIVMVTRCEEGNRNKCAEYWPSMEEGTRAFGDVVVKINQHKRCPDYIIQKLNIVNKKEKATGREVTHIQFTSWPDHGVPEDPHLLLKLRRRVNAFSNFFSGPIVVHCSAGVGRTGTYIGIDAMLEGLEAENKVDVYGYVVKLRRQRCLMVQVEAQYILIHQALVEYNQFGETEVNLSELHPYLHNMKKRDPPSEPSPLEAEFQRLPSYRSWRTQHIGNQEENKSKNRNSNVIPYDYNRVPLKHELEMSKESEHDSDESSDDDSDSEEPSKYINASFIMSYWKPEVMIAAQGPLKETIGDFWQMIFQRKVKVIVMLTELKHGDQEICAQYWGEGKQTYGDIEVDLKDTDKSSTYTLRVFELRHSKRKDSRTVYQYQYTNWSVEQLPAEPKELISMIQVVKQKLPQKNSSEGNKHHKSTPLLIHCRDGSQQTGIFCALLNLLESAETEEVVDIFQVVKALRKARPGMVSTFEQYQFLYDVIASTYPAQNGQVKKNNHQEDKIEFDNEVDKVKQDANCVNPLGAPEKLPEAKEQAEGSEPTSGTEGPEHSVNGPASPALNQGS
VHR, sequence (P51452 whole entry, species assumed): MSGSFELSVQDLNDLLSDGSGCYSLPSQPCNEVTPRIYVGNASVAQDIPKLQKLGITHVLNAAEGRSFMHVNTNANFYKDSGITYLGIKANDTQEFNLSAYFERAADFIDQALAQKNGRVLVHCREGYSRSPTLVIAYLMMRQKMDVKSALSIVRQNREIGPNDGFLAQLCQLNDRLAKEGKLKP
LMWPTP, sequence (P24666 whole entry, species assumed): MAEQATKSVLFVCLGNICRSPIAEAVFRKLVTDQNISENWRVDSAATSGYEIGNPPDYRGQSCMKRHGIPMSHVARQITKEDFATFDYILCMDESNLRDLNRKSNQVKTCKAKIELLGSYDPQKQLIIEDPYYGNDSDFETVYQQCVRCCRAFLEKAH
VHX, sequence (Q9NRW4 whole entry): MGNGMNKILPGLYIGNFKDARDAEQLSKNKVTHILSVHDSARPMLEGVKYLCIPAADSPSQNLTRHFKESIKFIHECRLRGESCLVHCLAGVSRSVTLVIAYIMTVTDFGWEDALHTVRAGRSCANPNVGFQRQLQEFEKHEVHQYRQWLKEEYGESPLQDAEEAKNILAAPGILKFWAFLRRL
Lyp, sequence (Q9Y2R2 whole entry, species assumed): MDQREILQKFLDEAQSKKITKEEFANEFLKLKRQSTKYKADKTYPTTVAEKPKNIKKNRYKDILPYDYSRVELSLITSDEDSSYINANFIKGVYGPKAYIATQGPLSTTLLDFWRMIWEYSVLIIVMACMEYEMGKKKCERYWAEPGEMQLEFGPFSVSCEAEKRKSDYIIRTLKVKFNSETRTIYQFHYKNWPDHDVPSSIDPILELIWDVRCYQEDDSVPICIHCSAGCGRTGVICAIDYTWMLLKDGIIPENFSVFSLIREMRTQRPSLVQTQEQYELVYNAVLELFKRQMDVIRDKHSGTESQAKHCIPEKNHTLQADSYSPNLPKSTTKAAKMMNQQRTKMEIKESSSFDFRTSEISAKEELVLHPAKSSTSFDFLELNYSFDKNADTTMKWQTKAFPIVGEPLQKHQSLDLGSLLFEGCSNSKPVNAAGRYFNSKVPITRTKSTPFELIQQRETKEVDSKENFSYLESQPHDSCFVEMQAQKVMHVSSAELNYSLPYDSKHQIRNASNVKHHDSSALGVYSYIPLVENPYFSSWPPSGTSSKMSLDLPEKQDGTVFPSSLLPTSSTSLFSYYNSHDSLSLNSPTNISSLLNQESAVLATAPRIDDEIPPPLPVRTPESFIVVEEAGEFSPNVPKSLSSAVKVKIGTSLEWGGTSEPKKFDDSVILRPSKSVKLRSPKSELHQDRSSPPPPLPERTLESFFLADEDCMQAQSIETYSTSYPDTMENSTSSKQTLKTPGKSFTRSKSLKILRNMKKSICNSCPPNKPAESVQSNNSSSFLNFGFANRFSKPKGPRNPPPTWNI

What does the source list for CCc1ccc(C(=O)NCCCCC(NC(=O)C(Cc2ccc(C(F)(F)P(=O)(O)O)cc2)NC(=O)C(Cc2ccccc2)NC(=O)COC2CC(C)CCC2C(C)C)C(N)=O)cc1 (stereo not drawn) [Compound 10]?
Ki [1]: > 1000 nM; Ki [2]: > 1000 nM; IC50 ([3]; IC50 with TC-PTP preincubation, enzyme preincubated with inhibitor 30 min, 0.04 nM TC-PTP): 8.7 ± 1.4 nM; IC50 ([3]; IC50 without TC-PTP preincubation, no preincubation, 0.04 nM TC-PTP): 9.2 ± 1.4 nM; selectivity for TC-PTP over PTP1B ([3]; TC-PTP versus PTP1B): 8 fold and 5.6 fold; Ki ([3]; Table 3, Example 13, read-out: Ki (TC-PTP)): 4.3 ± 0.2 nM; mode of inhibition of TC-PTP ([3]; kinetic analysis): reversible TC-PTP inhibitor; also recorded: reversible and competitive inhibitor; Ki ([3]; tight binding inhibition equation, Table 1, read-out: Ki for TC-PTP): 4.1 ± 0.2 nM; selectivity versus a panel of PTPs ([3]; versus SHP2, Lyp, HePTP, PTP-Meg2, FAP1, CD45, LAR, PTPa, VHR, VHX, CDC14A, low molecular weight PTP): more than 200 fold; Ki ([4]; Table 3, Example 13, read-out: Ki (PTP1B)): 34 ± 2.8 nM; mode of inhibition of PTP1B ([4]; kinetic analysis): reversible and competitive inhibitor; Ki ([4]; tight binding inhibition equation, Table 1, read-out: Ki for PTP1B): 23.1 ± 0.7 nM; Ki [5]: > 1000 nM; Ki [6]: > 1000 nM; pSrc416 phosphorylation [7]: dose-dependent increase; pSrc527 phosphorylation [7]: no significant change; Ki [8]: > 1000 nM; Ki [9]: > 1000 nM; Ki [10]: > 1000 nM; Ki [11]: > 1000 nM; Ki [12]: > 1000 nM; rescue of decreased response to IL-2 (pSTAT5) [13]: rescued in a concentration dependent manner; effect on EGFR phosphorylation, dose dependence ([14]; 0-50 nM, 2 h): enhanced EGFR phosphorylaltion in a dose-dependent fashion; also recorded: augmented EGFR phosphorylation in a dose dependent manner; increase in EGFR phosphorylation compared to DMSO ([14]; 5 nM, 2 h): ~2 fold and 1.9 fold; increase in EGFR phosphorylation compared to DMSO ([14]; 10 nM, 2 h): 3.4 fold; increase in EGFR phosphorylation compared to DMSO ([14]; 20 nM, 2 h): 3.9 fold; increase in EGFR phosphorylation compared to DMSO ([14]; 50 nM, 2 h): 5.0 fold; Ki [15]: > 1000 nM; Ki [16]: > 1000 nM; Ki [17]: > 1000 nM

How did the “effect on EGFR phosphorylation” value ([14]; 200 nM) turn out when CCc1ccc(C(=O)NCCCCC(NC(=O)C(Cc2ccccc2)NC(=O)C(Cc2ccccc2)NC(=O)COC2CC(C)CCC2C(C)C)C(N)=O)cc1 (stereo not drawn) [Compound 11] was run?
Its value is “no effect”.

Which IC50 ([3]; known competitive ligand, read-out: IC50 for TC-PTP) does the source give for O=C(N[C@@H](Cc1ccc(C(F)(F)P(=O)(O)O)cc1)C(=O)O)OCC1c2ccccc2-c2ccccc21 [Fmoc-F2Pmp-OH, reference compound] here?
The IC50 was 20000 nM.

What about the IC50 ([4]; known competitive ligand) of the same compound?
Its IC50 is 20000 nM.
